Reference: US7435837B2, “Dihydrobenzofuranyl alkanamine derivatives and methods for using same” (Wyeth, priority 2003, dated 2008)
Like-named read-outs stand apart in the source and are kept apart here.

Assays:
[1] = target: T1, human 5-hydroxytryptamine-2C (h5-HT2C) receptor (Homo sapiens, UniProt P28335); assay: [125I]DOI binding to membranes of CHO cells expressing the human 5-HT2C receptor; details: [125I]DOI radioligand, CHO cell membranes, room temperature 60 min; read-out: 5-HT2C Affinity Ki
T1 construct: expressed in transfected cells; host or cells: CHO (Chinese Hamster Ovary) cells; membranes
T1 sequence (P28335 33-458): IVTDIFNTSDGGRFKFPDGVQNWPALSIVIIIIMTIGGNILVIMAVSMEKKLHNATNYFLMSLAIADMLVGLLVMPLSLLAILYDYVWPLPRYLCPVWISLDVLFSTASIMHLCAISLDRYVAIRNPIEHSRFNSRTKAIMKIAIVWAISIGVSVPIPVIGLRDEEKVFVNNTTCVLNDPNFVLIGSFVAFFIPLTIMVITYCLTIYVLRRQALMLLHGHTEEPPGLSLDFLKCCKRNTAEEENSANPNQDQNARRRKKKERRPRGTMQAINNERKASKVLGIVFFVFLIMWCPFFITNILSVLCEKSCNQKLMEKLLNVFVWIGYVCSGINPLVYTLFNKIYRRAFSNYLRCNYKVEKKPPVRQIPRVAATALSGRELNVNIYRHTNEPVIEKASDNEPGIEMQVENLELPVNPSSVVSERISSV

[2] = target: T2, human 5-HT2C receptor (Homo sapiens, UniProt P28335); assay: 5-HT2C receptor-stimulated calcium mobilization (FLIPR) in CHO cells; format: cell-based; details: for EC50: calcium mobilization, CHO cells stably expressing human 5-HT2C, read-out: 5-HT2C Function EC50; for Emax: CHO;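 for all read-outs here: Fluo-3-AM fluorescence read on FLIPR every 1 s, agonist added after 10 baseline reads, response taken as peak minus lowest raw fluorescence count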
T2 sequence (P28335 33-458): T1 sequence (P28335 33-458)

[3] = percentage of the response observed with a maximally effective concentration of 5-HT
[4] = percentage of the response observed with a maximally effective concentration of 5-HT, read-out: 5-HT2C Function Emax (%)

SMILES | Ki [1] [nM] | EC50 [2] [nM] | 5-HT2C Function Emax (%) [2, 3] [%] | Emax [2, 4] [%] | Emax ([2]; read-out: 5-HT2C Function Emax (%), percentage of the response observed with a maximally effective concentration of 5-HT) [%]
NCC1Cc2cc(F)cc(-c3cccnc3)c2O1 (single isomer, unassigned; (+)) [Example 208, (+)-{[5-fluoro-7-pyridin-3-yl-2,3-dihydro-1-benzofuran-2-yl]methyl}amine] | 1.9 | 0.36 | 100 |  | 
Cc1ccc(-c2cc(F)cc3c2OC(CN)C3)cc1 (racemic) [Example 201, (±)-{[5-fluoro-7-(4-methylphenyl)-2,3-dihydro-1-benzofuran-2-yl]methyl}amine] | 8 | 396 |  | 80 | 
COc1ccc(-c2cc(Cl)cc3c2OC(CN)C3)c(OC)c1 (racemic) [Example 254, (±)-{[5-chloro-7-(2,4-dimethoxyphenyl)-2,3-dihydro-1-benzofuran-2-yl]methyl}amine] | 0.89 | 11 |  | 90 | 
CNCC1Cc2cc(F)cc(-c3c(Cl)cccc3Cl)c2O1 (racemic) [Example 454, (±)-{[7-(2,6-dichlorophenyl)-5-fluoro-2,3-dihydro-1-benzofuran-2-yl]methyl}methylamine] | 0.26 | 0.39 |  |  | 90
CNCC1Cc2cc(OC)cc(-c3cc(Cl)ccc3Cl)c2O1 (racemic) [Example 499, (±)-{[7-(2,5-dichlorophenyl)-5-methoxy-2,3-dihydro-1-benzofuran-2-yl]methyl}methylamine] | 3.6 | 57 |  | 90 | 
COc1cc2c(c(-c3cc(Cl)ccc3Cl)c1)OC(CN)C2 (single isomer, unassigned; (+)) [Example 368, (+)-{[7-(2,5-dichlorophenyl)-5-methoxy-2,3-dihydro-1-benzofuran-2-yl]methyl}amine] | 1.4 | 4 |  | 90 | 
CN(C)CC1Cc2cc(F)cc(-c3c(Cl)cccc3Cl)c2O1 (racemic) [Example 237, (±)-{[7-(2,6-dichlorophenyl)-5-fluoro-2,3-dihydro-1-benzofuran-2-yl]methyl}dimethylamine] | 0.57 | 3 |  | 80 | 
Cc1cc2c(c(-c3c(Cl)cccc3Cl)c1)OC(CN)C2 (racemic) [Example 302, (±)-{[7-(2,6-dichlorophenyl)-5-methyl-2,3-dihydro-1-benzofuran-2-yl]methyl}amine] | 0.3 | 2 |  | 100 | 
CNCC1Cc2cc(F)cc(-c3cc(F)ccc3F)c2O1 (racemic) [Example 448, (±)-{[7-(2,5-difluorophenyl)-5-fluoro-2,3-dihydro-1-benzofuran-2-yl]methyl}methylamine] | 7 | 78 |  | 70 | 
NCC1Cc2cc(C3CCCC3)cc(-c3ccccc3Cl)c2O1 (racemic) [Example 310, (±)-{[5-cyclopentyl-7-(2-chlorophenyl)-2,3-dihydro-1-benzofuran-2-yl]methyl}amine] | 13 | 137 |  | 90 | 
NCC1Cc2cccc(-c3cccnc3)c2O1 (single isomer, unassigned; (+)) [Example 171, (+)-{[7-pyridin-3-yl-2,3-dihydro-1-benzofuran-2-yl]methyl}amine] | 0.88 | 0.7 |  | 100 | 
NCC1Cc2cc(F)cc(-c3ccccn3)c2O1 (racemic) [Example 205, (±)-[(5-fluoro-7-pyridin-2-yl-2,3-dihydro-1-benzofuran-2-yl)methyl]amine] | 3 | 280 |  | 80 | 
COc1cc2c(c(-c3ccc(F)c(Cl)c3)c1)OC(CN)C2 (racemic) [Example 373, (±)-{[7-(3-chloro-4-fluorophenyl)-5-methoxy-2,3-dihydro-1-benzofuran-2-yl]methyl}amine] | 61 | 859 |  | 60 | 
CNCC1Cc2cccc(-c3c(Cl)cccc3Cl)c2O1 (racemic) [Example 433, (±)-[(N-methyl-1-[7-(2,6-dichlorophenyl)-2,3-dihydro-1-benzofuran-2-yl]methanamine] | 3.5 | 1 |  | 100 | 
Cc1cc2c(c(-c3cccc(Cl)c3)c1)OC(CN)C2 (racemic) [Example 288, (±)-{[7-(3-chlorophenyl)-5-methyl-2,3-dihydro-1-benzofuran-2-yl]methyl}amine] | 7.1 | 38 |  | 100 | 
NCC1Cc2cccc(C3CCCC3)c2O1 (racemic) [Example 8, (±)-(7-cyclopentyl-2,3-dihydro-1-benzofuran-2-yl)methylamine] | 9 | 188 |  | 85 | 

More lines, main results first:

Ki [1] [nM] | EC50 [2] [nM] | 5-HT2C Function Emax (%) [2, 3] [%] | Emax [2, 4] [%] | SMILES | Emax ([2]; read-out: 5-HT2C Function Emax (%), percentage of the response observed with a maximally effective concentration of 5-HT) [%]
0.4 | 22 |  | 100 | Cc1cc2c(c(-c3ccc(F)cc3)c1)OC(CN)C2 (racemic) [Example 291, (±)-{[7-(4-fluorophenyl)-5-methyl-2,3-dihydro-1-benzofuran-2-yl]methyl}amine] | 
0.63 | 63 |  | 100 | COc1cc2c(c(-c3ccccc3F)c1)OC(CN)C2 (racemic) [Example 356, (±)-{[7-(2-fluorophenyl)-5-methoxy-2,3-dihydro-1-benzofuran-2-yl]methyl}amine] | 
0.15 | 0.97 |  | 100 | NCC1Cc2cccc(-c3ccc(Cl)cc3Cl)c2O1 (single isomer, unassigned; (-)) [Example 149, (−)-1-[7-(2,4-dichlorophenyl)-2,3-dihydro-1-benzofuran-2-yl]methanamine] | 
14 | 50 |  | 100 | COc1ccc(Cl)cc1-c1cccc2c1OC(CN)C2 (racemic) [Example 169, (±)-{[7-(5-chloro-2-methoxyphenyl)-2,3-dihydro-1-benzofuran-2-yl]methyl}amine] | 
5 | 80 |  | 80 | NCC1Cc2cc(F)cc(-c3ccc(F)cc3F)c2O1 (racemic) [Example 215, (±)-{[7-(2,4-difluorophenyl)-5-fluoro-2,3-dihydro-1-benzofuran-2-yl]methyl}amine] | 
0.9 | 62 |  | 85 | COc1cc2c(c(-c3ccc(F)cc3F)c1)OC(CN)C2 (racemic) [Example 364, (±)-{[7-(2,4-difluorophenyl)-5-methoxy-2,3-dihydro-1-benzofuran-2-yl]methyl}amine] | 
10 | 132 | 80 |  | Cc1ccccc1-c1cccc2c1OC(CN)C2 (single isomer, unassigned; (-)) [Example 49, (−)-1-[7-(2-methylphenyl)-2,3-dihydro-1-benzofuran-2-yl]methanamine] | 
8 | 30 |  | 90 | NCC1Cc2cc(F)cc(-c3cc(F)ccc3F)c2O1 (racemic) [Example 220, (±)-{[7-(2,5-difluorophenyl)-5-fluoro-2,3-dihydro-1-benzofuran-2-yl]methyl}amine] | 
1 | 49 |  | 90 | Cc1ccccc1-c1cc(C(C)C)cc2c1OC(CN)C2 (racemic) [Example 307, (±)-{[5-isopropyl-7-(2-methylphenyl)-2,3-dihydro-1-benzofuran-2-yl]methyl}amine] | 
41 | 24 |  | 70 | COc1ccccc1-c1cccc2c1OC(CN)C2 (single isomer, unassigned; (+)) [Example 128, (+)-1-[7-(2-methoxyphenyl)-2,3-dihydro-1-benzofuran-2-yl]methanamine] | 
1.4 | 2 |  | 90 | NCC1Cc2cc(F)cc(-c3cc(Cl)ccc3Cl)c2O1 (racemic) [Example 221, (±)-{[7-(2,5-dichlorophenyl)-5-fluoro-2,3-dihydro-1-benzofuran-2-yl]methyl}amine] | 
9 | 1000 |  | 70 | Cc1ccccc1-c1cc(F)c(F)c2c1OC(CN)C2 (racemic) [Example 110, (±)-1-[4,5-difluoro-7-(2-methylphenyl)-2,3-dihydro-1-benzofuran-2-yl]methanamine] | 
0.46 | 6 | 90 |  | CNCC1Cc2cccc(-c3ccccc3C)c2O1 (single isomer, unassigned; (+)) [Example 408, (+)-N-methyl-1-[7-(2-methylphenyl)-2,3-dihydro-1-benzofuran-2-yl]methanamine] | 
9 | 313 | 60 |  | Cc1cccc(C)c1-c1cccc2c1OC(CN)C2 (single isomer, unassigned; (+)) [Example 58, (+)-1-[7-(2,6-dimethylphenyl)-2,3-dihydro-1-benzofuran-2-yl]methanamine] | 
1 | 4 | 95 |  | Cc1ccccc1-c1cc(F)cc2c1OC(CN)C2 (single isomer, unassigned; (+)) [Example 105, (+)-1-[5-fluoro-7-(2-methylphenyl)-2,3-dihydro-1-benzofuran-2-yl]methanamine] | 
